Target: T1, BTK (Homo sapiens, UniProt Q06187)
Experiment: not given
Settings: 0.75 uM BTK, […] probe 3l, 15 min preincubation, 10 µM, inhibitor, BTK inhibition (%)

T1 sequence (Q06187 402-655 limits assumed): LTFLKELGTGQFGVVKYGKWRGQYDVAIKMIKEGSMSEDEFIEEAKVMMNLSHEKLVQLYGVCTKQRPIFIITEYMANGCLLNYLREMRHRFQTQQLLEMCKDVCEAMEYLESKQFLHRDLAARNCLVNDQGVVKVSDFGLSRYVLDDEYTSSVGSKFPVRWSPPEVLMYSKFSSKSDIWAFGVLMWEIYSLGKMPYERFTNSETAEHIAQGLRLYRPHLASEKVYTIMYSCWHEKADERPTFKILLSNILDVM

| Compound | BTK inhibition (%) |
| --- | --- |
| Nc1nc2[nH]cc(CCc3ccc(C(=O)N[C@@H](CCC(=O)O)C(=O)O)cc3)c2c(=O)[nH]1 [PCM-0215446] | -10.2 |
| C[C@H](O)[C@H](O)[C@@H](O)[C@@H](O)C=O [PCM-0214991] | -11.7 |
| O=C(O)O [PCM-0216262] | -6.2 |
| COc1ccc2[nH]c([S@@+]([O-])Cc3ncc(C)c(OC)c3C)nc2c1 [PCM-0214571] | -13.2 |
| O=C(O)O [PCM-0216036] | 4.3 |
| CC(=O)Oc1ccccc1C(=O)O [PCM-0064532] | 7.6 |
| COc1cc(NS(=O)(=O)c2ccc(N)cc2)nc(OC)n1 [PCM-0216005] | -11.6 |
| N[C@@H](C=O)[C@@H](O)[C@H](O)[C@H](O)CO [PCM-0214928] | -6.2 |
| Cc1cc(C)nc(NS(=O)(=O)c2ccc(N)cc2)n1 [PCM-0086513] | -23.3 |
| CN1[C@@H]2CC[C@H]1CC(OC(=O)c1c[nH]c3ccccc13)C2 (stereo partly shown) [PCM-0086109] | -11.7 |
| CN1[C@@H]2CC[C@H]1CC(OC(=O)c1c[nH]c3ccccc13)C2 (stereo partly shown) [PCM-0216191] | -12.4 |
| Cc1ccccc1C(=O)Nc1ccc(C(=O)N2CCCC(N(C)C)c3ccccc32)cc1 (stereo not shown) [PCM-0095424] | 70 |
| C/C(=C\C(=O)OCCCCCCCCC(=O)O)C[C@@H]1OC[C@H](C[C@@H]2O[C@H]2[C@@H](C)[C@H](C)O)[C@@H](O)[C@H]1O [PCM-0215997] | 13.9 |
| CCC(=O)NS(=O)(=O)c1ccc(-c2c(-c3ccccc3)noc2C)cc1 [PCM-0216557] | 2.3 |
| COc1ccc2c(c1)c(CC(=O)O)c(C)n2C(=O)c1ccc(Cl)cc1 [PCM-0065532] | 5.5 |
| Cc1cc(C)nc(NS(=O)(=O)c2ccc(N)cc2)n1 [PCM-0216008] | 11.7 |
| Nc1ccc(S(=O)(=O)Nc2ncccn2)cc1 [PCM-0085802] | -14 |
| CC[C@H]1OC(=O)[C@H](C)[C@@H](O[C@H]2C[C@@](C)(OC)[C@@H](O)[C@H](C)O2)[C@H](C)[C@@H](O[C@@H]2O[C@H](C)C[C@H](N(C)C)[C@H]2O)[C@](C)(O)C[C@@H](C)C(=O)[C@H](C)[C@@H](O)[C@]1(C)O [PCM-0214693] | 5.4 |
| C=C1[C@H](CO)[C@@H](O)C[C@@H]1n1cnc2c(=O)[nH]c(N)nc21 [PCM-0216093] | 11 |
| CC(C(=O)O)c1cccc(Oc2ccccc2)c1 (stereo not shown) [PCM-0214813] | 4.8 |
| O=C(Nc1ccc2c(O)cc(S(=O)(=O)O)cc2c1)Nc1ccc2c(O)cc(S(=O)(=O)O)cc2c1 [PCM-0215497] | 21.6 |
| Cc1c(O)c(=O)ccn1C [PCM-0090746] | -11.9 |

Same assay, conditions: 0.75 uM BTK, […] probe 3l, 15 min preincubation; 10 µM; inhibitor

| Compound | BTK inhibition (%) |
| --- | --- |
| CC[C@@]1(O)C(=O)OCc2c1cc1n(c2=O)Cc2cc3cc(O)ccc3nc2-1 [PCM-0094873] | -14 |
| CCNc1nc(Cl)nc(NC(C)C)n1 [PCM-0215964] | 3.9 |
| O=P1(N(CCCl)CCCl)NCCCO1 (stereo not shown) [PCM-0064707] | -19.3 |
| C[N+]1(C)[C@@H]2CC(OC(=O)C(O)(c3cccs3)c3cccs3)C[C@H]1[C@@H]1O[C@@H]12 (stereo partly shown) [PCM-0095323] | -5.4 |
| CN1[C@@H]2CC(OC(=O)[C@H](CO)c3ccccc3)C[C@H]1[C@@H]1O[C@@H]12 (stereo partly shown) [PCM-0086586] | -3.1 |
| c1cc2c(cc1[C@H]1OC[C@H]3[C@@H]1CO[C@H]3c1ccc3c(c1)OCO3)OCO2 [PCM-0216178] | 29.3 |
| CC(C)=CCC[C@]1(C)C=Cc2c(O)c3c(c(CC=C(C)C)c2O1)O[C@]12C(=C[C@@H]4C[C@H]1C(C)(C)O[C@@]2(C/C=C(/C)C(=O)O)C4=O)C3=O [PCM-0214728] | -1.6 |
| COc1ccc(C(CN(C)C)C2(O)CCCCC2)cc1 (stereo not shown) [PCM-0065195] | 6.2 |
| CN1[C@@H]2CC[C@H]1CC(OC(=O)[C@H](CO)c1ccccc1)C2 (stereo partly shown) [PCM-0095561] | -14.8 |
| C[N+](C)(C)CCCCCCCCCC[N+](C)(C)C [PCM-0065265] | 11.7 |
| CC(=O)OC1CN2CCC1CC2 (stereo not shown) [PCM-0215275] | 4.7 |
| COC(=O)c1ccccc1C(=O)OC [PCM-0216149] | -9.3 |
| O=c1ccc2cc(O[C@@H]3O[C@H](CO)[C@@H](O)[C@H](O)[C@H]3O)c(O)cc2o1 [PCM-0091361] | 0 |
| O=C/C=C/c1ccccc1 [PCM-0215920] | 3.1 |
| O=C(Nc1ccc(Oc2ccc(Cl)cc2)c(Cl)c1)c1cc(I)cc(I)c1O [PCM-0216018] | 37.1 |
| CC(=O)O[C@H]1C[C@@H]2CC[C@@H]3[C@H](CC[C@@]4(C)[C@H]3C[C@H]([N+]3(C)CCCCC3)[C@@H]4OC(C)=O)[C@@]2(C)C[C@@H]1N1CCCCC1 [PCM-0214623] | -6.2 |
| C1CCN2C[C@H]3C[C@H](CN4CCCC[C@@H]34)[C@H]2C1 [PCM-0216422] | 6.9 |

| Compound | BTK inhibition (%) |
| --- | --- |
| CN(C)C(=O)Oc1ccc[n+](C)c1 [PCM-0065636] | -25.7 |
| COc1ccc2c(c1)[nH]c1c(C)nccc12 [PCM-0088555] | -17.1 |
| O=C(O)C1C2CCC(O2)C1C(=O)O (stereo not shown) [PCM-0215947] | -7.7 |
| CCCCC(C#N)(Cn1cncn1)c1ccc(Cl)cc1 (stereo not shown) [PCM-0216598] | 3.1 |
| CN(C)C(=O)Oc1cccc([N+](C)(C)C)c1 [PCM-0064762] | -7.7 |
| CC(C)[N+]1(C)[C@@H]2CC[C@H]1CC(OC(=O)C(CO)c1ccccc1)C2 (stereo partly shown) [PCM-0214646] | -24.9 |
| CCOC(=O)C1=C[C@@H](OC(CC)CC)[C@H](NC(C)=O)[C@@H](N)C1 [PCM-0095436] | -10.2 |
| CN1C2CC(OC(=O)C(CO)c3ccccc3)CC1C(O)C2 (stereo not shown) [PCM-0216645] | 6.9 |
| c1c2c(cc3c1OCO3)-c1cc3ccc4c(c3c[n+]1CC2)OCO4 [PCM-0216022] | -46.8 |
| C[N+]1(C)[C@@H]2CC(OC(=O)[C@H](CO)c3ccccc3)C[C@H]1[C@@H]1O[C@@H]12 (stereo partly shown) [PCM-0095246] | 10.9 |
| c1cc2c(cc1[C@H]1OC[C@H]3[C@@H]1CO[C@@H]3c1ccc3c(c1)OCO3)OCO2 [PCM-0094427] | -24.1 |
| CCN(CC)CCOC(=O)C(O)(c1ccccc1)c1ccccc1 [PCM-0214873] | 8.6 |
| NC(=O)c1ncn([C@@H]2O[C@H](CO)[C@@H](O)[C@H]2O)n1 [PCM-0065438] | -11.7 |
| COc1cc([C@H]2OC[C@@H]3[C@@H]2CO[C@H]3c2cc(OC)c(O[C@@H]3O[C@H](CO)[C@@H](O)[C@H](O)[C@H]3O)c(OC)c2)cc(OC)c1O[C@@H]1O[C@H](CO)[C@@H](O)[C@H](O)[C@H]1O [PCM-0216398] | -10 |
| CC[N+](C)(CC)CCOC(=O)C(O)(c1ccccc1)c1ccccc1 [PCM-0214829] | -19.5 |
| CC1=C(O)C(=O)C=C2C1=CC=C1[C@@]2(C)CC[C@@]2(C)[C@@H]3C[C@](C)(C(=O)O)CC[C@]3(C)CC[C@]12C [PCM-0214611] | 67.7 |
| O=C(NC(=O)c1c(F)cccc1F)Nc1ccc(OC(F)(F)C(F)OC(F)(F)F)c(Cl)c1 (stereo not shown) [PCM-0216580] | 22.4 |

Same assay, conditions: 10 µM, inhibitor

| Compound | BTK inhibition (%) |
| --- | --- |
| COC1=C[C@@H]2[C@@H]3Cc4ccc(OC)c(O)c4[C@]2(CCN3C)CC1=O [PCM-0214970] | 0 |
| COC1=C[C@@H]2[C@@H]3Cc4ccc(OC)c(O)c4[C@]2(CCN3C)CC1=O [PCM-0090951] | 14.8 |

Same assay, conditions: 10 µM; inhibitor

| Compound | BTK inhibition (%) |
| --- | --- |
| C=C[C@]12CN(C)[C@@H]3[C@H]4CO[C@H](C[C@H]41)[C@]1(C(=O)Nc4ccccc41)[C@@H]32 [PCM-0216528] | -0.8 |
| Nc1ncnc2c1ccn2[C@@H]1O[C@H](CO)[C@@H](O)[C@H]1O [PCM-0215658] | 10.8 |
| C[C@H]1CC[C@@H]2N(C1)C[C@H]1[C@@H]3C[C@H]4[C@@H](CC(=O)[C@H]5C[C@@H](O)CC[C@@]54C)[C@@H]3CC[C@H]1[C@]2(C)O [PCM-0216485] | -13.9 |
| COc1ccc(C=O)cc1O [PCM-0215127] | -7.8 |
| COc1ccc(/C=C/c2cc(OC)cc(OC)c2)cc1 [PCM-0214992] | 34.2 |
| O=c1ccc2c(O)c3ccoc3cc2o1 [PCM-0216332] | -11.6 |
| C[C@H]1CCC2N(C1)C[C@H]1C3CC4[C@@H](CC(=O)C5C[C@@H](O)CC[C@@]54C)C3CCC1[C@]2(C)O (stereo partly shown) [PCM-0216425] | -17.8 |
| CC(=O)OC(C)(C)/C=C/C(=O)[C@](C)(O)[C@H]1[C@H](O)C[C@@]2(C)[C@@H]3CC=C4[C@@H](C[C@H](O)C(=O)C4(C)C)[C@]3(C)C(=O)C[C@]12C [PCM-0214542] | -10 |
| CCCCCc1cc(O)cc(O)c1 [PCM-0215917] | -13.9 |
| C[C@H]1CCCC(=O)CCC/C=C/c2cc(O)cc(O)c2C(=O)O1 [PCM-0216639] | 10.8 |
| COP(=O)(OC)SCn1c(=O)oc2cc(Cl)cnc21 [PCM-0215999] | -2.3 |
| CN1CC=C(c2ccccc2)CC1 [PCM-0214851] | 3.1 |
| CN1CCC(c2c[nH]c3ccc(O)cc23)CC1 [PCM-0064588] | 16.3 |
| Cc1c([C@H](C)[C@@H]2NC[C@@H](C)C[C@H]2O)ccc2c1C[C@H]1[C@H]2CC=C2C[C@@H](O)CC[C@@]21C [PCM-0214977] | -2.3 |
| N#C[C@H](O[C@@H]1O[C@H](CO[C@@H]2O[C@H](CO)[C@@H](O)[C@H](O)[C@H]2O)[C@@H](O)[C@H](O)[C@H]1O)c1ccccc1 [PCM-0094813] | -12.5 |

Target: T1, BTK
Experiment: biochemical
Settings: read-out: BTK inhibition (%), 0.75 uM BTK, […] probe 3l, 15 min preincubation

| Compound | inhibition at 10 µM [%] |
| --- | --- |
| OC[C@@H](O)[C@@H](O)[C@H](O)[C@H](O)CO [PCM-0094876] | -17.1 |
| CC(C)NC[C@H](O)COc1ccc(CCOCC2CC2)cc1 [PCM-0214769] | 0.8 |
| CC[C@@H](N)CNc1ccnc(-c2cc(-c3cnn(C)c3)ccc2O)n1 [PCM-0215825] | 2.8 |

Reference: paper PMC8041284, “Tunable Methacrylamides for Covalent Ligand Directed Release Chemistry” (Journal of the American Chemical Society, 2021)
